From patent US20250082766A1, “TREATMENT OF BRAIN TUMORS BY TARGETING THE CHOLESTEROL PATHWAY IN ASTROCYES” (Ramot at Tel-Aviv University Ltd., priority 2022, published 2025)

Legend:
[1] = test system: reactive astrocytes / GL261 glioma; test: Reactive astrocyte depletion with GCV in GL261-bearing WT or Gfap-TK mice; assay type: in vivo, mouse
From the text: FIGS. 1A-I illustrate that depletion of Tumor-associated astrocytes (TAAs) regress glioblastoma progression. (FIG. 1A) Representative immunofluorescence images of reactive TAAs stained for GFAP (cyan) crowning a glioblastoma (GBM) tumor (GFP^+-GL261, white), and nuclei (DAPI, yellow). The right image is an expansion of the area marked by the white box. (n=3 biologically independent experiments, 3 mice per group). Scale bar, 1000 m; (FIGS. 1B-I) WT (wild type), or Gfap-TK GBM-bearing mice were treated daily with Ganciclovir (GCV, 25 mg/kg) from day 10 until the experimental endpoint as illustrated in FIG. 1B. (FIG. 1C) representative immunofluorescence images of reactive astrocyte depletion at the tumor margins (GFP^+-GL261, white), as detected by GFAP staining (cyan). Scale bars, 500 m. Data are representative of three independent experiments with n=4 mice/group. (FIGS. 1D-G) Tumor size in GCV-treated WT or Gfap-TK GBM-bearing littermates. (FIGS. 1D-E) Representative images of GL261-derived bioluminescence from each group are shown in FIG. 1D and quantification of tumor size in FIG. 1E. Data are representative of five independent experiments with n=6 mice/group. (FIGS. 1F-G) Representative images from each group, 17 days after GL261 cell implantation, are shown in FIG. 1F with quantification of tumor size in FIG. 1G, tumor (GL261 cells in purple), and nuclei (DAPI; white). Scale bar, 1000 m. Data are representative of three independent experiments with n=5 mice/group. (FIG. 1H) Bodyweight assessment of mice from FIGS. 1D-E. (FIG. 1I) Kaplan-Meier curves assessing overall survival. Data are representative of three independent experiments with n=8 mice/group. Data in FIGS. 1D-H are shown as mean±s.e.m. P values were determined by two-way ANOVA (FIGS. 1D-H) or Log rank (Mantel-Cox) test (FIG. 1I). *P<0.05, **P<0.01, ***P<0.001, n.s. not significant.
For intracranial mouse glioma, mice were anesthetized, positioned in a Stereotaxic Alignment System, and injected with 1.5×10^4 GL261 or CT-2A cells in 2 μl of DMEM. Injections were made to the right frontal lobe, approximately 2.5 mm lateral and 0.1 mm caudal from bregma at a depth of 3 mm. In-vivo bioluminescence imaging, following XenoLight D-luciferin Potassium Salt administration (150 mg/kg) i.p. administration, was determined using IVIS Spectrum system (PerkinElmer). Ganciclovir (GCV, Cymevene, Roche #SAP-10051872; 25 mg/kg), Diphtheria-toxin (DT, Sigma-Aldrich, #D0564; 1100 ng/mice), or vehicle control (PBS) were administered daily following tumor establishment (day 10), as previously described (Mayo, L., et al. Nat Med (2014) 20: 1147-1156). CD8^+ T cell depletion was performed using an anti-CD8 monoclonal antibody ([…], Bioxcell) or an isotype control monoclonal antibody (2A3, Bioxcell), as previously described (Takenaka, M. C. et al. Control of tumor-associated macrophages and T cells in glioblastoma via AHR and CD39. Nat Neurosci 22, 729-740 (2019)). GBM-bearing mice were intraperitoneally injected (0.1 mg/mouse) with an anti-CD8 or an isotype control mAbs, 1 day before, and 7 days after, GCV administration. CD8 T-cell depletion was validated by FACS analysis using a Sony SH800 FACS instrument (Sony Biotechnology). Data analysis was performed using FlowJo v10 (TreeStar, USA). The following reagents were used for analysis: anti-CD45 (1:100; 30-F11, Biolegend, #103106), anti-CD3[…] (1:50; 145-2C11, Biolegend #100335), and anti-CD8a (1:100; 53-6.7, Biolegend, #100765).
To study the role of TAAs in glioblastoma, the course of tumor progression was analyzed in mice expressing the herpes simplex virus thymidine kinase (HSVtk) under the Gfap promotor (Gfap-TK), in which Ganciclovir (GCV) administration can deplete reactive astrocytes. For this purpose, GFP^+GL261-Luc (GL261) was intracranially injected […], into syngeneic C57Bl/6 WT or into Gfap-TK littermates. […]

[2] = test system: glioma; details: OXPHOS-targeting drugs; cited from earlier work
[3] = test system: GL261 and CT-2A glioma cells; test: Cell viability assay (Annexin V/DAPI FACS) of glioma cells; assay type: cell-based, mouse; details: GL261 or CT-2A in LPDS-media; cholesterol 250 ng/ml for 5 days; FIGS. 5F-G
Experimental: FIGS. 5A-N illustrate that astrocyte-derived cholesterol supports glioma survival. (FIGS. 5A-D) Real-time changes in the ECAR (FIGS. 5A-B) and oxygen consumption rate (OCR) (FIGS. 5C-D) of GL261 glioma cells, cultured in media supplemented with full serum (FCS, fetal calf serum) or lipoprotein-deprived serum (LPDS, Lipoprotein-deficient serum) for 18 hours and measured using Seahorse. Oligo, oligomycin; FCCP, carbonyl cyanide4-(trifluoromethoxy) phenylhydrazone; R/A, rotenone plus antimycin A; 2-DG, 2-deoxy-d-glucose. Glycolysis, glycolytic capacity and glycolytic reserve were extracted from the ECAR reading, and basal respiration, adenosine triphosphate (ATP) production, Maximal respiration, and spare respiratory capacity were determined based on OCR. Data are representative of two independent experiments (n=6 technical replicates per experiment). (FIG. 5E) Percentage of cell death of GL261 and CT-2A glioma cells, or primary astrocytes, cultured in FCS or LPDS for 5 days; as determined by Annexin-V assay (n=5 independent experiments). […] Representative flow cytometry plots of Annexin-V/DAPI staining from each group are shown in FIG. 5F and quantification analyses of cholesterol rescue are in FIG. 5G (n=5 biologically independent experiments). (FIGS. 5H-K) Representative images and quantification of LDLR expression (Immunoblot, FIGS. 5H-I) and cell death via FACS analysis of Annexin V/DAPI staining (FIGS. 5J-K) in response to endogenous LXR agonists (24-OHC) or Mock (DMSO) treatment in GL261 and CT-2A cells (n=3 biologically independent experiments). […] (FIGS. 5L-M) Representative flow cytometry plots of murine GL261 and CT-2A glioma cells co-cultured for 5 days with primary mouse astrocytes are shown in FIG. 5L and quantification analyses in FIG. 5M (n=4 biologically independent experiments). (FIG. 5N) quantification analyses of human U87EGFRvIII (U87) glioma cells co-cultured with human primary astrocytes for 5 days (n=3 biologically independent experiments). […]

## Nc1nc(O)c2ncn(COC(CO)CO)c2n1 [GCV, Ganciclovir]
[1]; GBM-bearing Gfap-TK mice (not in WT mice), GCV 25 mg/kg daily from day 10, FIG. 1C
  reactive astrocytes around the tumors (GFAP staining): specific ablation of reactive astrocytes
[1]; GCV-treated GL261-bearing Gfap-TK mice vs WT littermates, FIG. 1H
  weight loss: significantly attenuates the weight loss
[1]; GCV-treated GL261-bearing Gfap-TK mice vs WT littermates, FIG. 1I
  survival: dramatically improves their survival
[1]; GCV-treated GL261-bearing Gfap-TK vs WT mice, day 17, FIGS. 3D-E
  accumulation of IBA-1+ TAMs in the TME: significantly reduces
[1]; GL261-bearing Gfap-TK mice, GCV 25 mg/kg daily from day 10, FIGS. 1D-G
  tumor size (bioluminescence, histology): dramatic tumor regression
[1]; GL261-bearing WT mice, GCV 25 mg/kg daily vs vehicle, FIG. 7A
  GBM progression (tumor size, bioluminescence): neither GCV treatment of WT mice nor genetic insertion of the HSVtk into Gfap-TK mice (without GCV treatment) affected GBM progression
[1]; GL261-bearing WT mice, GCV vs vehicle, FIG. 7E
  survival: had no effect on survival

## Cc1nc(-c2nc(-c3ccc(OC(F)(F)F)cc3)no2)nn1Cc1cccc(N2CCC(S(C)(=O)=O)CC2)c1 [IACS-010759]
[2]
  glioma proliferation and cell death: inhibit glioma proliferation and induce cell death

## CC(C)CCC[C@@H](C)[C@H]1CC[C@H]2[C@@H]3CC=C4C[C@@H](O)CC[C@]4(C)[C@H]3CC[C@]12C [cholesterol]
[3]
  rescue of glioma viability from lipoprotein-bound cholesterol deprivation: overcame the deleterious effects of lipoprotein-bound cholesterol deprivation on glioma viability

## CN(C)C(=N)N=C(N)N [metformin]
[2]
  glioma proliferation and cell death: inhibit glioma proliferation and induce cell death
